ChEMBL document CHEMBL5614422, “Design, synthesis and biological evaluation of N-salicyloyl tryptamine derivatives as multifunctional neuroprotectants for the treatment of ischemic stroke” (Eur J Med Chem, 2024)
Values after ≈ are worked out from the molar mass of the structure shown.

Columns and labels:
HT-22 [1] = assay: Neuroprotective activity against OGD/R induced cell damage in mouse HT-22 cells assessed as cell viability at 10 uM measured after 24 hrs by MTT assay (reference value: 69.01 +/-2.90%); format: functional; details: read-out: Activity
[2] = Cytotoxicity against mouse BV-2 cells assessed as cell viability incubated for 24 hrs by CCK-8 method; format: toxicity, cell-based
[3] = Cytotoxicity against mouse HT-22 cells assessed as cell viability incubated for 24 hrs by CCK-8 method; format: toxicity, cell-based
HT-22 [4] = assay: Anti-apoptotic activity in OGD/R mouse HT-22 cells assessed as necrotic cells at 10 uM by annexin V-FITC and PI staining based flow cytometry analysis (reference value: 0.14%); format: functional
[5] = Antioxidant activity assessed as trolox equivalent of ORAC radical scavenging activity at 0.125 to 2 uM by AAPH based automatic microplate reader analysis; format: functional; details: dose 0.125-2 µM
HT-22 [6] = assay: Anti-apoptotic activity in OGD/R mouse HT-22 cells assessed as early apoptotic cells at 10 uM by annexin V-FITC and PI staining based flow cytometry analysis (reference value: 9.51%); format: functional
[7] = Aqueous solubility of the compound incubated for 72 hrs under shaking condition by HPLC analysis; format: physicochemical
HT-22 [8] = assay: Antioxidant activity against OGD/R induced damage in mouse HT-22 cells assessed as decrease in proportion of mitochondrial depolarized cells at 10 uM by JC-1 fluorescence based flow cytometry analysis (reference value: 91.7%); format: functional; set-up: scale not given: the % may be the effect or the level left
HT-22 [9] = assay: Anti-apoptotic activity in OGD/R mouse HT-22 cells assessed as viable cells at 10 uM by annexin V-FITC and PI staining based flow cytometry analysis (reference value: 83.09%); format: functional; details: read-out: Activity
HT-22 [10] = assay: Anti-apoptotic activity in OGD/R mouse HT-22 cells assessed as late apoptotic cells at 10 uM by annexin V-FITC and PI staining based flow cytometry analysis (reference value: 7.26%); format: functional
[11] = Permeability of the compound by PAMPA method; format: ADME; details: read-out: permeability

COc1ccc2[nH]cc(CCNC(=O)c3ccc(C)cc3O)c2c1
viability at 10 µM (HT-22 [1]): 74%
IC50 at 24 h [2]: > 100 µM
IC50 at 24 h [3]: > 100 µM

Cc1cccc(C(=O)NCCc2c[nH]c3ccccc23)c1O
viability at 10 µM (HT-22 [1]): 87.2%
IC50 at 24 h [2]: 36.1 µM
IC50 at 24 h [3]: 51.5 µM

Cc1ccc(C(=O)NCCc2c[nH]c3cc(F)ccc23)c(O)c1
viability at 10 µM (HT-22 [1]): 77.7%
IC50 at 24 h [2]: > 100 µM
IC50 at 24 h [3]: > 100 µM

CNc1cccc2c(CCNC(=O)c3ccc(C)cc3O)c[nH]c12
viability at 10 µM (HT-22 [1]): 80.8%
IC50 at 24 h [2]: 28.9 µM
IC50 at 24 h [3]: > 100 µM

Cc1ccc(C(=O)NCCc2c[nH]c3c(C)cccc23)c(O)c1
viability at 10 µM (HT-22 [1]): 79.5%
IC50 at 24 h [2]: 39.1 µM
IC50 at 24 h [3]: > 100 µM

Cc1ccc(C(=O)NCCc2c[nH]c3ccc(Cl)cc23)c(O)c1
viability at 10 µM (HT-22 [1]): 76%
IC50 at 24 h [2]: 80.5 µM
IC50 at 24 h [3]: 61.2 µM

Cc1ccc(C(=O)NCCc2c[nH]c3c(N(C)C)cccc23)c(O)c1
viability at 10 µM (HT-22 [1]): 87.1%
IC50 at 24 h [2]: > 100 µM
IC50 at 24 h [3]: 59.8 µM

O=C(NCCc1c[nH]c2ccccc12)c1ccc(Cl)cc1O
viability at 10 µM (HT-22 [1]): 65.8%
IC50 at 24 h [2]: 53.4 µM
IC50 at 24 h [3]: 99.7 µM

Cc1ccc(C(=O)NCCc2c[nH]c3cc(N(C)C)ccc23)c(O)c1
viability at 10 µM (HT-22 [1]): 88.9%
IC50 at 24 h [2]: 52.4 µM
IC50 at 24 h [3]: 46.4 µM

Cc1ccc(C(=O)NCCc2c[nH]c3cccc(Cl)c23)c(O)c1
viability at 10 µM (HT-22 [1]): 71.1%
IC50 at 24 h [2]: 89.1 µM
IC50 at 24 h [3]: > 100 µM

CC1=NN(c2ccccc2)C(=O)C1 [EDARAVONE]
Activity (HT-22 [4]): 0.72%
Activity [5]: 2.8
viability at 10 µM (HT-22 [1]): 80.9%
Activity (HT-22 [6]): 1.78%
solubility thermodynamic at 72 h [7]: 1840 µg/mL (≈ 10.6 mM)
Activity (HT-22 [8]): 67.9%
viability at 10 µM (HT-22 [9]): 92.1%
Activity (HT-22 [10]): 5.39%

O=C(NCCc1c[nH]c2ccccc12)c1cccc(Cl)c1O
viability at 10 µM (HT-22 [1]): 87.9%
IC50 at 24 h [2]: 50.4 µM
IC50 at 24 h [3]: 52 µM

Cc1ccc(C(=O)NCCc2c[nH]c3cccc(C)c23)c(O)c1
viability at 10 µM (HT-22 [1]): 52.4%
IC50 at 24 h [2]: > 100 µM
IC50 at 24 h [3]: > 100 µM

COc1cc(C)cc2[nH]cc(CCNC(=O)c3ccc(C)cc3O)c12
viability at 10 µM (HT-22 [1]): 85.4%
IC50 at 24 h [2]: 52.9 µM
IC50 at 24 h [3]: 73 µM

Cc1ccc(C(=O)NCCc2c[nH]c3cccc(F)c23)c(O)c1
Activity [5]: 3.7
viability at 10 µM (HT-22 [1]): 94.5%
IC50 at 24 h [2]: 81.7 µM
IC50 at 24 h [3]: 84.6 µM

O=C(NCCc1c[nH]c2ccccc12)c1cc(Br)ccc1O
viability at 10 µM (HT-22 [1]): 73.4%
IC50 at 24 h [2]: 68.2 µM
IC50 at 24 h [3]: 64.7 µM

Cc1ccc(C(=O)NCCc2c[nH]c3ccc(F)cc23)c(O)c1
Activity [5]: 3.1
viability at 10 µM (HT-22 [1]): 83.9%
IC50 at 24 h [2]: > 100 µM
IC50 at 24 h [3]: > 100 µM

Cc1ccc(C(=O)NCCc2c[nH]c3cc4c(cc23)OCO4)c(O)c1
viability at 10 µM (HT-22 [1]): 82.8%
IC50 at 24 h [2]: 98.8 µM
IC50 at 24 h [3]: > 100 µM

O=C(NCCc1c[nH]c2ccccc12)c1c(O)cccc1F
viability at 10 µM (HT-22 [1]): 87.7%
IC50 at 24 h [2]: > 100 µM
IC50 at 24 h [3]: > 100 µM

Cc1ccc(C(=O)NCCc2c[nH]c3cc(F)cc(F)c23)c(O)c1
viability at 10 µM (HT-22 [1]): 89.2%
IC50 at 24 h [2]: 32.7 µM
IC50 at 24 h [3]: 61.9 µM

Cc1ccc(C(=O)NCCc2c[nH]c3ccc(C)cc23)c(O)c1
Activity [5]: 3.1
viability at 10 µM (HT-22 [1]): 89.5%
IC50 at 24 h [2]: 79.3 µM
IC50 at 24 h [3]: > 100 µM

CN1CCN(C2=Nc3cc(Cl)ccc3Nc3ccccc32)CC1 [CLOZAPINE]
Papp [11]: 8.34 ×10⁻⁶ cm/s

CNc1ccc2[nH]cc(CCNC(=O)c3ccc(C)cc3O)c2c1
viability at 10 µM (HT-22 [1]): 82.4%
IC50 at 24 h [2]: 95.4 µM
IC50 at 24 h [3]: > 100 µM

COc1cccc2c(CCNC(=O)c3ccc(C)cc3O)c[nH]c12
Activity [5]: 2
viability at 10 µM (HT-22 [1]): 91.5%
IC50 at 24 h [2]: 90.9 µM
IC50 at 24 h [3]: 73.2 µM

Cc1cccc(O)c1C(=O)NCCc1c[nH]c2ccccc12
viability at 10 µM (HT-22 [1]): 88.4%
IC50 at 24 h [2]: 43.6 µM
IC50 at 24 h [3]: 60 µM

Cc1ccc(C(=O)NCCc2c[nH]c3cc(C)ccc23)c(O)c1
viability at 10 µM (HT-22 [1]): 60.2%
IC50 at 24 h [2]: > 100 µM
IC50 at 24 h [3]: > 100 µM

Cc1ccc(C(=O)NCCc2c[nH]c3c(Br)cccc23)c(O)c1
viability at 10 µM (HT-22 [1]): 78.1%
IC50 at 24 h [2]: 52.8 µM
IC50 at 24 h [3]: > 100 µM

COc1ccc2c(CCNC(=O)c3ccc(C)cc3O)c[nH]c2c1
viability at 10 µM (HT-22 [1]): 61.5%
IC50 at 24 h [2]: > 100 µM
IC50 at 24 h [3]: 102 µM

Cc1ccc(C(=O)NCCc2c[nH]c3ccccc23)c(O)c1
Activity [5]: 4.4
viability at 10 µM (HT-22 [1]): 88.8%
Activity (HT-22 [8]): 74%
IC50 at 24 h [2]: > 100 µM
IC50 at 24 h [3]: > 100 µM

Cc1ccc(C(=O)NCCc2c[nH]c3c(Cl)cccc23)c(O)c1
viability at 10 µM (HT-22 [1]): 74.8%
IC50 at 24 h [2]: 62.2 µM
IC50 at 24 h [3]: > 100 µM

COc1cc2[nH]cc(CCNC(=O)c3ccc(C)cc3O)c2cc1OC
viability at 10 µM (HT-22 [1]): 75%
IC50 at 24 h [2]: 26.5 µM
IC50 at 24 h [3]: 54.6 µM

COc1cccc(C(=O)NCCc2c[nH]c3ccccc23)c1O
viability at 10 µM (HT-22 [1]): 87.8%
IC50 at 24 h [2]: > 100 µM
IC50 at 24 h [3]: > 100 µM

Cc1ccc(C(=O)NCCc2c[nH]c3cc(Cl)ccc23)c(O)c1
viability at 10 µM (HT-22 [1]): 64.6%
IC50 at 24 h [2]: 52.5 µM
IC50 at 24 h [3]: 63.1 µM

COc1cccc2[nH]cc(CCNC(=O)c3ccc(C)cc3O)c12
viability at 10 µM (HT-22 [1]): 74%
IC50 at 24 h [2]: 96 µM
IC50 at 24 h [3]: 78.4 µM

O=C(NCCc1c[nH]c2ccccc12)c1ccc(Br)cc1O
viability at 10 µM (HT-22 [1]): 76.2%
IC50 at 24 h [2]: > 100 µM
IC50 at 24 h [3]: > 100 µM

Cc1ccc(C(=O)NCCc2c[nH]c3cc(Br)ccc23)c(O)c1
viability at 10 µM (HT-22 [1]): 66.2%
IC50 at 24 h [2]: 46.6 µM
IC50 at 24 h [3]: 70.8 µM

O=C(NCCc1c[nH]c2ccccc12)c1cc(Cl)ccc1O
viability at 10 µM (HT-22 [1]): 77.2%
IC50 at 24 h [2]: > 100 µM
IC50 at 24 h [3]: > 100 µM

Cc1ccc(C(=O)NCCc2c[nH]c3ccc(Br)cc23)c(O)c1
viability at 10 µM (HT-22 [1]): 67.8%
IC50 at 24 h [2]: 88.6 µM
IC50 at 24 h [3]: 76.1 µM

Cc1ccc(C(=O)NCCc2c[nH]c3cccc(Br)c23)c(O)c1
viability at 10 µM (HT-22 [1]): 73.1%
IC50 at 24 h [2]: > 100 µM
IC50 at 24 h [3]: > 100 µM

COc1ccc(C(=O)NCCc2c[nH]c3ccccc23)c(O)c1
viability at 10 µM (HT-22 [1]): 86.9%
IC50 at 24 h [2]: 68 µM
IC50 at 24 h [3]: 52.6 µM

O=C(NCCc1c[nH]c2ccccc12)c1ccccc1O
viability at 10 µM (HT-22 [1]): 83%
IC50 at 24 h [2]: 55.1 µM
IC50 at 24 h [3]: > 100 µM

COc1ccc(O)c(C(=O)NCCc2c[nH]c3ccccc23)c1
Activity (HT-22 [4]): 0.16%
viability at 10 µM (HT-22 [1]): 88.5%
Activity (HT-22 [6]): 5.54%
viability at 10 µM (HT-22 [9]): 89.1%
IC50 at 24 h [2]: 51 µM
Activity (HT-22 [10]): 5.18%
IC50 at 24 h [3]: > 100 µM

Cc1ccc(O)c(C(=O)NCCc2c[nH]c3ccccc23)c1
viability at 10 µM (HT-22 [1]): 76.5%
IC50 at 24 h [2]: 50.2 µM
IC50 at 24 h [3]: 51.1 µM

O=C(NCCc1c[nH]c2ccccc12)c1cccc(Br)c1O
viability at 10 µM (HT-22 [1]): 79.7%
IC50 at 24 h [2]: 85.4 µM
IC50 at 24 h [3]: 48.5 µM

COc1cc(Cl)c2c(CCNC(=O)c3ccc(C)cc3O)c[nH]c2c1
viability at 10 µM (HT-22 [1]): 60.1%
IC50 at 24 h [2]: > 100 µM
IC50 at 24 h [3]: > 100 µM

COc1cccc(O)c1C(=O)NCCc1c[nH]c2ccccc12
viability at 10 µM (HT-22 [1]): 59.2%
IC50 at 24 h [2]: 21.7 µM
IC50 at 24 h [3]: 8.06 µM

Cc1ccc(C(=O)NCCc2c[nH]c3c(F)cccc23)c(O)c1
viability at 10 µM (HT-22 [1]): 92.5%
IC50 at 24 h [2]: 43 µM
IC50 at 24 h [3]: 86.2 µM
